Tested on: Sprague-Dawley rats
Test: Biomarkers in colon of TNBS-induced acute colitis rats (Example E1)
Type: in vivo, rat
Details: protein by ELISA, vs vehicle treated controls, Peptide 993 65 mg/kg/day; for IL-22 level in colon / MPO level in colon: Peptide 980 37 mg/kg/day
From the text: The effect of treatment with peptide inhibitors of IL23R on inflammatory markers associated with IL23 signaling was examined in a rat model of acute colitis. Acute colitis was induced in Sprague-Dawley rats by a single intra-rectal instillation of 2,4,6-Trinitrobenzenesulfonic acid (TNBS) followed by efficacy analysis at day seven. Pharmacodynamic (PD) biomarkers were examined using enzyme-linked immunosorbent assay (ELISA), quantitative reverse transcription polymerase chain reaction, or immunohistochemistry analysis of colon, feces, or serum samples obtained from colitic rats treated with Peptide 993, Peptide 1185, or Peptide 980.
Acute colitis was induced by providing 7-week-old female Sprague-Dawley rats with various dosages of 64 mg/kg or 48 mg/kg of TNBS in 50% ethanol (TNBS/ethanol) administered intrarectally at Day 0. Peptide inhibitors were administered orally two or three times a day at various dosages and were provided in drinking water at various dosages, for 8 days starting approximately 24 hours (Day −1) prior TNBS inoculation.
Levels of a number of inflammatory biomarkers were examined in the colons. The distal colon tissue samples, designated for protein expression analysis, were flash frozen after collection. For protein extraction, the samples were thawed, weighed and homogenized in the extraction buffer (PBS pH 7.2 supplemented with Protease Inhibitors, 3× volume:weight). The homogenates were centrifuged at 13 krpm at 4° C. for 15 minutes, a total of two times to remove the debris. The supernatants were saved in multiple aliquots in −80° C. and subsequently used for protein expression analysis on ELISA. The total protein in each sample was quantified using BCA assay. MPO, IL-10, IL-6, IL-17A and IL-22 biomarker protein expression in the distal colon samples was analyzed using commercially available rat ELISA kits.

| Molecule | IL-17A level in colon | IL-22 level in colon | MPO level in colon |
| --- | --- | --- | --- |
| CC(=O)NCCCCC(NC(=O)C1(NC(=O)C(Cc2ccc3ccccc3c2)NC(=O)C(Cc2ccc(OCCN)cc2)NC(=O)C2NC(=O)C(CCC(N)=O)NC(=O)C(Cc3c[nH]c4ccccc34)NC(=O)C(C(C)O)NC(=O)C(CC(N)=O)NC(=O)C(NC(C)=O)C(C)(C)SSC2(C)C)CCOCC1)C(=O)NC(CC(N)=O)C(=O)NC(CC(N)=O)C(N)=O (centres unmarked) [Peptide 1185, Ac-cyclo[[Pen]-NTWQ-[Pen]]-[Phe[4-(2-aminoethoxy)]]-[2-Nal]-[4-amino-4-carboxy-tetrahydropyran]-[Lys(Ac)]-NN-NH2] | did not significantly reduce | did not significantly reduce | did not significantly reduce |
| Ac-cyclo[[Abu]-QTWQC]-[Phe[4-(2-aminoethoxy)]]-[2-Nal]-[4-amino-4-carboxy-tetrahydropyran]-ENN-NH2 [Peptide 980] | – | reduced | reduced |

Source: patent publication US20200064357A1, “METHODS FOR DETERMINING AND MONITORING GASTROINTESTINAL INFLAMMATION” (Protagonist Therapeutics, Inc., priority 2016, published 2020)
